Assay results published in patent US12187773B2, “Modified GIP peptide analogues” (Antag Therapeutics ApS, priority 2018, dated 2025).
Where a SMILES comes first, the peptide text is derived from it. Where no end group is shown, it is not given here. The star is where a group is joined. C16 diacid = O=C(O)CCCCCCCCCCCCCCC(=O)*

Tests used:
Assay type in all cases: cell-based
[1] = molecular target: T1, human GIP receptor (Homo sapiens, UniProt P48546); experiment: cAMP agonism (CisBio cAMP Dynamic 2 HTRF assay); conditions: HEK293, read-out: cAMP agonism, % Efficacy, Table 1C, HEK-293 cells
T1 sequence (P48546 22-466): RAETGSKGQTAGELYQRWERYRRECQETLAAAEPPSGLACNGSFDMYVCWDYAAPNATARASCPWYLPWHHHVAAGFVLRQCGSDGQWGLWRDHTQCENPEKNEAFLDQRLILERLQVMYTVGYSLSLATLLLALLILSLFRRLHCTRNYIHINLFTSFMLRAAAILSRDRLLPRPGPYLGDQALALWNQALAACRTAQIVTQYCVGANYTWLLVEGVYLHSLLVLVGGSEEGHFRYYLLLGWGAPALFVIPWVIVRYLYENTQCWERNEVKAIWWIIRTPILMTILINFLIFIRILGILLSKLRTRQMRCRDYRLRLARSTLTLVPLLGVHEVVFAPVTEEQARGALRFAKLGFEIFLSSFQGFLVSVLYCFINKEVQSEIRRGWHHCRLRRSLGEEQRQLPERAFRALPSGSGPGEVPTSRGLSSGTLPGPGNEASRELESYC
Method: To test for agonistic properties at the GIP receptor, compounds were diluted and added to cells as described above and incubated for 30 min at 37° C. The resulting increase in intracellular cAMP was determined using the CisBio cAMP Dynamic 2 HTRF Assay Kit as described above.

[2] = molecular target: T1, human GIP receptor; experiment: cAMP accumulation, agonism (DiscoveRx HitHunter cAMP XS assay); set-up: host or cells: COS-7 (transient, calcium phosphate; pCMV-Script vector); conditions: COS-7, read-out: cAMP agonism, Emax
Method: (§1) Transient transfected COS-7 cells expressing the human GIP receptor were seeded in white 96-well plates with a density of 3.5*10^4/well. The day after, the cells were washed twice with Hepes buffered saline (HBS) buffer and incubated with HBS and 1 mM 3-isobutyl-1-methylxanthine (IBMX) for 30 min at 37° C. To test for agonistic properties, ligands were added and incubated for 30 min at 37° C. In order to test for antagonistic properties, the cells were preincubated with the antagonists for 10 min prior to the addition of the agonist and subsequent incubated for 20 additional min. The HitHunter™ cAMP XS assay (DiscoveRx) was carried out according to the manufacturer's instructions.
(§2) In order to develop a GIP receptor antagonist with improved antagonistic properties, individual amino acid substitutions were conducted on GIP(3-30)NH2 and in particular at positions: 16, 18, 30 or 3, 16, 18, 30. The obtained peptides were lipidated at position 18 directly or via a linker. Both the agonistic and antagonistic profiles of the compounds were tested in cAMP accumulation experiments done in transiently transfected COS-7 cells expressing the human GIP receptor. To investigate if these mutated analogues still retained their antagonistic properties, their ability to inhibit a GIP-mediated cAMP response corresponding to 50-80% of maximum activation was examined.

[3] = molecular target: T1, human GIP receptor; experiment: cAMP antagonism (CisBio cAMP Dynamic 2 HTRF assay); set-up: pCMV-Script vector; conditions: Table 1C; CisBio; HEK-293 cells
Method: The in vitro functional activity of compounds towards human GIP receptor can also be determined in HEK-293 cells transiently expressing the receptor. On the day of the assay, cells were resuspended in HBSS buffer (Gibco, 14025-50) supplemented with 20 mM HEPES (Gibco, 15630-106), 0,1% Pluronic F-68 (Gibco, 24040-032) and 0,1% casein (Sigma, C4765), and plated in 384-well plates at a density of 5000 cells/well. The GIP peptide analogues of the present disclosure were diluted in HBSS buffer supplemented with 20 mM HEPES, 0,1% pluronic, 0,1% casein and 500 uM IBMX. […] The resulting decrease in intracellular cAMP was quantitatively determined using the CisBio cAMP Dynamic 2 HTRF Assay Kit. The assay is based on a competition between native cAMP produced by cells and cAMP labeled with the dye d2 for binding to a cryptate labeled antibody. The specific signal (i.e. energy transfer signal) is inversely proportional to the concentration of cAMP in the sample.
The cAMP-d2 conjugate and the antibody anti-cAMP-Cryptate, both diluted in lysis buffer provided in the kit, were added to the cells according to the manufacturer's protocol. The resulting competitive assay was incubated for 60 minutes at room temperature, and the signal was detected by using a PerkinElmer Envision® instrument with excitation at 320 nm and emission at 665 nm and 620 nm. The HTRF ratio (emission at 665 nm/620 nm*10,000) is inversely proportional to the amount of cAMP present and is converted to nM cAMP per well using a cAMP standard curve. The dose-response curves were fitted using the non-linear regression analysis (four-logistic parameter equation) in GraphPad Prism, whereby pIC50 values were estimated.

[4] = molecular target: T1, human GIP receptor; experiment: cAMP accumulation, antagonism (DiscoveRx HitHunter cAMP XS assay); set-up: host or cells: COS-7 (transient, calcium phosphate; pCMV-Script vector); conditions: Table 2, truncated GIP antagonists
Method: as §1, §2

Molecule	Emax [1]	Emax [2]	cAMP antagonism, % inhib [3]	cAMP antagonism, % inhib [4]	IC50 ([4]; cAMP antagonism, nM (IC50))	cAMP antagonism, nM (IC50) [4]
CC[C@H](C)[C@H](NC(=O)[C@H](CO)NC(=O)[C@H](Cc1ccc(O)cc1)NC(=O)[C@H](CC(=O)O)NC(=O)[C@H](CO)NC(=O)[C@@H](NC(=O)[C@H](Cc1ccccc1)NC(=O)[C@@H](N)[C@@H](C)O)[C@@H](C)CC)C(=O)N[C@@H](C)C(=O)N[C@@H](CC(C)C)C(=O)N[C@@H](CC(=O)O)C(=O)N[C@@H](CCCNC(=N)N)C(=O)N[C@H](C(=O)N[C@@H](CCCCNC(=O)CC[C@H](NC(=O)COCCOCCNC(=O)CCCCCCCCCCCCCCC(=O)O)C(=O)O)C(=O)N[C@@H](CCC(N)=O)C(=O)N[C@@H](CCC(N)=O)C(=O)N[C@@H](CC(=O)O)C(=O)N[C@@H](Cc1ccccc1)C(=O)N[C@H](C(=O)N[C@@H](CC(N)=O)C(=O)N[C@@H](Cc1c[nH]c2ccccc12)C(=O)N[C@@H](CC(C)C)C(=O)N[C@@H](CC(C)C)C(=O)N[C@@H](C)C(=O)N[C@@H](CCC(N)=O)C(=O)N[C@@H](CCCNC(=N)N)C(N)=O)C(C)C)[C@@H](C)CC [AT234] (HELM PEPTIDE1{T.F.I.S.D.Y.S.I.A.L.D.R.I.K.Q.Q.D.F.V.N.W.L.L.A.Q.R.[am]}|PEPTIDE2{[O=C(O)CCCCCCCCCCCCCCC(=O)[*:2]].[O=C(COCCOCCN[*:1])[*:2]].[gGlu]}$PEPTIDE1,PEPTIDE2,14:R3-3:R2$$$V2.0; N-terminus assumed)	0%	26%	–	–	–	–
CC[C@H](C)[C@H](NC(=O)[C@H](CO)NC(=O)[C@H](Cc1ccc(O)cc1)NC(=O)[C@H](CC(=O)O)NC(=O)[C@H](CO)NC(=O)[C@@H](NC(=O)[C@H](Cc1ccccc1)NC(=O)[C@@H](NC(=O)CNC(=O)CN)[C@@H](C)O)[C@@H](C)CC)C(=O)N[C@@H](C)C(=O)N[C@@H](CCSC)C(=O)N[C@@H](CC(=O)O)C(=O)N[C@@H](CCCNC(=N)N)C(=O)N[C@H](C(=O)N[C@@H](CCCCNC(=O)CCCCCCCCCCCCCCC(=O)O)C(=O)N[C@@H](CCC(N)=O)C(=O)N[C@@H](CCC(N)=O)C(=O)N[C@@H](CC(=O)O)C(=O)N[C@@H](Cc1ccccc1)C(=O)N[C@H](C(=O)N[C@@H](CC(N)=O)C(=O)N[C@@H](Cc1c[nH]c2ccccc12)C(=O)N[C@@H](CC(C)C)C(=O)N[C@@H](CC(C)C)C(=O)N[C@@H](C)C(=O)N[C@@H](CCC(N)=O)C(=O)N[C@@H](CCCNC(=N)N)C(=O)O)C(C)C)[C@@H](C)CC [AT257] (H-GGTFISDYSIAMDRIK(C16 diacid)QQDFVNWLLAQR-OH; N-terminus assumed)	5%	4%	–	–	–	–
CC[C@H](C)[C@H](N)C(=O)N[C@@H](CO)C(=O)N[C@@H](CC(=O)O)C(=O)N[C@@H](Cc1ccc(O)cc1)C(=O)N[C@@H](CO)C(=O)N[C@H](C(=O)N[C@@H](C)C(=O)N[C@@H](CCSC)C(=O)N[C@@H](CC(=O)O)C(=O)N[C@@H](CCCCN)C(=O)N[C@H](C(=O)N[C@@H](CCCCNC(=O)CCCCCCCCCCCCCCC(=O)O)C(=O)N[C@@H](CCC(N)=O)C(=O)N[C@@H](CCC(N)=O)C(=O)N[C@@H](CC(=O)O)C(=O)N[C@@H](Cc1ccccc1)C(=O)N[C@H](C(=O)N[C@@H](CC(N)=O)C(=O)N[C@@H](Cc1c[nH]c2ccccc12)C(=O)N[C@@H](CC(C)C)C(=O)N[C@@H](CC(C)C)C(=O)N[C@@H](C)C(=O)N[C@@H](CCC(N)=O)C(=O)N[C@@H](CCCCN)C(N)=O)C(C)C)[C@@H](C)CC)[C@@H](C)CC [AT354] (H-ISDYSIAMDKIK(C16 diacid)QQDFVNWLLAQK-NH2; N-terminus assumed)	0%	–	91%	100.0%	10 nM	–
CC[C@H](C)[C@H](NC(=O)[C@H](CO)NC(=O)[C@H](Cc1ccc(O)cc1)NC(=O)[C@H](CC(=O)O)NC(=O)[C@@H](N)CO)C(=O)N[C@@H](C)C(=O)N[C@@H](CCSC)C(=O)N[C@@H](CC(=O)O)C(=O)N[C@@H](CCCCN)C(=O)N[C@H](C(=O)N[C@@H](CCCCNC(=O)CCCCCCCCCCCCCCC(=O)O)C(=O)N[C@@H](CCC(N)=O)C(=O)N[C@@H](CCC(N)=O)C(=O)N[C@@H](CC(=O)O)C(=O)N[C@@H](Cc1ccccc1)C(=O)N[C@H](C(=O)N[C@@H](CC(N)=O)C(=O)N[C@@H](Cc1c[nH]c2ccccc12)C(=O)N[C@@H](CC(C)C)C(=O)N[C@@H](CC(C)C)C(=O)N[C@@H](C)C(=O)N[C@@H](CCC(N)=O)C(=O)N[C@@H](CCCCN)C(N)=O)C(C)C)[C@@H](C)CC [AT355] (H-SDYSIAMDKIK(C16 diacid)QQDFVNWLLAQK-NH2; N-terminus assumed)	0%	–	65%	100.0%	–	–
CC[C@H](C)[C@H](NC(=O)[C@H](CO)NC(=O)[C@@H](N)Cc1ccc(O)cc1)C(=O)N[C@@H](C)C(=O)N[C@@H](CCSC)C(=O)N[C@@H](CC(=O)O)C(=O)N[C@@H](CCCCN)C(=O)N[C@H](C(=O)N[C@@H](CCCCNC(=O)CCCCCCCCCCCCCCC(=O)O)C(=O)N[C@@H](CCC(N)=O)C(=O)N[C@@H](CCC(N)=O)C(=O)N[C@@H](CC(=O)O)C(=O)N[C@@H](Cc1ccccc1)C(=O)N[C@H](C(=O)N[C@@H](CC(N)=O)C(=O)N[C@@H](Cc1c[nH]c2ccccc12)C(=O)N[C@@H](CC(C)C)C(=O)N[C@@H](CC(C)C)C(=O)N[C@@H](C)C(=O)N[C@@H](CCC(N)=O)C(=O)N[C@@H](CCCCN)C(N)=O)C(C)C)[C@@H](C)CC [AT357] (H-YSIAMDKIK(C16 diacid)QQDFVNWLLAQK-NH2; N-terminus assumed)	0%	–	40%	100.0%	–	–
AT356: GIP 9-30, C-term NH2, C16-diacid at position 18, [H18K] (DYSIAMDKIK(C16 diacid)QQDFVNWLLAQK-NH2; N-terminus assumed; SMILES CC[C@H](C)[C@H](NC(=O)[C@H](CO)NC(=O)[C@H](Cc1ccc(O)cc1)NC(=O)[C@@H](N)CC(=O)O)C(=O)N[C@@H](C)C(=O)N[C@@H](CCSC)C(=O)N[C@@H](CC(=O)O)C(=O)N[C@@H](CCCCN)C(=O)N[C@H](C(=O)N[C@@H](CCCCNC(=O)CCCCCCCCCCCCCCC(=O)O)C(=O)N[C@@H](CCC(N)=O)C(=O)N[C@@H](CCC(N)=O)C(=O)N[C@@H](CC(=O)O)C(=O)N[C@@H](Cc1ccccc1)C(=O)N[C@H](C(=O)N[C@@H](CC(N)=O)C(=O)N[C@@H](Cc1c[nH]c2ccccc12)C(=O)N[C@@H](CC(C)C)C(=O)N[C@@H](CC(C)C)C(=O)N[C@@H](C)C(=O)N[C@@H](CCC(N)=O)C(=O)N[C@@H](CCCCN)C(N)=O)C(C)C)[C@@H](C)CC)	–	–	–	–	–	No antagonism
